pEC50, pIC50: −log10 of the molar value. Where two headings read alike, the source gives them in different places.
Tests used:
[1] = test system: DoHH2; conditions: cited from earlier work
[2] = test system: PC3; assay: Proliferation/viability assay; assay type: cell-based; conditions: Homo sapiens, PC-3; Table 10; Prostate Ca; read-out: Effect on Tumor Cell Growth EC50, PC3
[3] = test system: DoHH2; assay: CellTiter-Glo proliferation/viability assay; assay type: cell-based, human; conditions: Homo sapiens, DOHH-2
[4] = test system: RPMI8226; assay: Proliferation/viability assay; assay type: cell-based; conditions: Homo sapiens, RPMI-8226; Table 10; Myeloma; read-out: Effect on Tumor Cell Growth EC50, RPMI 8226
[5] = test system: Ramos; assay: CellTiter-Glo proliferation/viability assay; assay type: cell-based, human; conditions: Homo sapiens, Ramos
[6] = test system: SuDHL6; assay: Proliferation/viability assay; assay type: cell-based; conditions: Homo sapiens, SU-DHL-6; Table 10; B Lymphoma; read-out: Effect on Tumor Cell Growth EC50, SuDHL6
[7] = test system: Ramos; conditions: cited from earlier work
[8] = test system: DoHH2 cells; conditions: treated 24 hours
[9] = test system: PLCγ2 phosphorylation in Ramos cells; assay: PLCγ2 phosphorylation by Western blotting; assay type: cell-based, human; conditions: anti-IgM/H2O2 stimulation, Tyr1217
Procedure: Ramos cells were cultured in RPMI 1640 media with 10% FBS and were starved overnight (18 h) in 1% FBS containing media and on the next day pretreated with inhibitor for 2 h before stimulation. Cells were stimulated to induce BTK network dependent signal transduction pathways using mouse anti-human IgM (final concentration 10 ug/ml; Invitrogen) antibodies and 3.3 mM H2O2 mixture for 2 minutes followed by F(Ab) fragment that cross-linked the anti-IgM antibody (final concentration 10 ug/ml), and 3.3 mM H2O2 for 8 minutes. Cell lysates were prepared in lysis buffer containing protease and phosphatase inhibitors, quantified using the BCA protein assay kit (Pierce) and used for Western blotting. Antibodies specifically targeted to the molecules of interest, PLCγ2 phosphorylated at Tyr1217 and total PLCγ2, (Cell Signaling Technology) were used in a standard Western blotting procedure.
Phosphorylation of PLCγ2 at Tyr1217 along with Tyr753, Tyr759 and Tyr1197 is correlated with increased PLCγ2 activity. The readout for BTK network signaling was inhibition of phosphorylation of PLCγ2 induced by the anti-IgM treatment.

[10] = target: T1, Lyn (Homo sapiens (Human), UniProt P07948); conditions: read-out: Lyn IC50
[11] = test system: phosphorylation of SFKs in Ramos cells; assay: SFK phosphorylation (Tyr 416) by Western blotting; assay type: cell-based, human; conditions: pretreated 2 hours
Procedure: Ramos cell lysates from stimulated and unstimulated cells were analyzed for the levels of phosphorylated SRC family members. As described in Example 82 (above), cells were pretreated for 2 hours with an amino naphthyridinones and then stimulated with anti-IgM antibody and H2O2, protein lysates were prepared, quantified and used for Western blotting. A commercially available antibody that detects Src phosphorylated at Tyr 416 (Cell Signalling) and may cross-react with other Src family members such as Lyn, Fyn, Lck, Yes and Hck when phosphorylated at equivalent sites was used for Western blot analysis. The molecular weights of SFK family members are quite similar (in the 55-60 kDa range) and different family members cannot be resolved by the conditions used for the Western blot. […] The procedure can be similarly adapted for flow cytometric analysis as with the PLC-γ2 assay in Example 82. Ramos cells were incubated with Compound 1 for 2 hrs in RPMI media with 5% FBS prior to stimulation stimulated with H2O2/anti-IgM/F(Ab) for 10 minutes. Cells were evaluated by FACS analysis using anti-pSRC antibody and FITC-conjugated goat anti-rabbit secondary antibody following overnight storage at 4° C. in BD perm/wash buffer.

[12] = target: T1, Lyn; assay: biochemical
[13] = target: BTK (Homo sapiens (Human), UniProt Q06187)
[14] = target: Src (Homo sapiens (Human), UniProt P12931); assay: biochemical
[15] = test system: PLCγ2 phosphorylation in Ramos cells; assay: PLCγ2 phosphorylation by flow cytometry; assay type: cell-based, human; conditions: Homo sapiens, flow cytometry, anti-phospho PLCγ2 (Tyr1217), four concentrations, read-out: Inhibition of phosphorylation of PLC-γ2 EC50
Method in brief: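 Ramos cells starved 18 h in 1% FBS, pretreated with inhibitor 2 h, then stimulated with anti-IgM (10 ug/ml final) plus 3.3 mM H2O2 for 2 min, then cross-linking F(ab) (10 ug/ml) plus H2O2 for 8 min. Fixed, permeabilized cells stained with PE anti-phospho-PLCγ2 (Tyr1217 or Tyr759), dead cells gated out; ED50 from geometric mean fluorescence over four inhibitor concentrations.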

[16] = Table 10, B Lymphoma, read-out: Effect on Tumor Cell Growth EC50, DOHH2
[17] = Table 10, B Lymphoma, read-out: Effect on Tumor Cell Growth EC50, Ramos

Sequence of BTK (Q06187 whole entry): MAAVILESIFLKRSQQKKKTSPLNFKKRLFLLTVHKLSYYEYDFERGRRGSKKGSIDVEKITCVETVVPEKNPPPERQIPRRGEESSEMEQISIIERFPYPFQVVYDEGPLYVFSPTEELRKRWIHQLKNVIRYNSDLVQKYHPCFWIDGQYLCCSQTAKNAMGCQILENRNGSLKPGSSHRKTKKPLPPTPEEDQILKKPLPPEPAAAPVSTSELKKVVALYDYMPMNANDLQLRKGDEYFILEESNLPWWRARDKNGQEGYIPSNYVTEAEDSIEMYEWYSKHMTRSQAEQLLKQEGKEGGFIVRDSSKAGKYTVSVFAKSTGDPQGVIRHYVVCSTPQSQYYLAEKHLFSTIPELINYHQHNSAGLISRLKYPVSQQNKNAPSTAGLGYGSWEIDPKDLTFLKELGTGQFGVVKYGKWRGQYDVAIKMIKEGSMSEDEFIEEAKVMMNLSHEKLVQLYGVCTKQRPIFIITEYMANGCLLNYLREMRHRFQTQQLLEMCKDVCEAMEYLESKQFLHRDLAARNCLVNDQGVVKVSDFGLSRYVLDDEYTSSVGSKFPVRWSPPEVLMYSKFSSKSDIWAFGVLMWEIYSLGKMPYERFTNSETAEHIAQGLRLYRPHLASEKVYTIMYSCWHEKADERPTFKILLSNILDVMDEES
T1 sequence (P07948 whole entry): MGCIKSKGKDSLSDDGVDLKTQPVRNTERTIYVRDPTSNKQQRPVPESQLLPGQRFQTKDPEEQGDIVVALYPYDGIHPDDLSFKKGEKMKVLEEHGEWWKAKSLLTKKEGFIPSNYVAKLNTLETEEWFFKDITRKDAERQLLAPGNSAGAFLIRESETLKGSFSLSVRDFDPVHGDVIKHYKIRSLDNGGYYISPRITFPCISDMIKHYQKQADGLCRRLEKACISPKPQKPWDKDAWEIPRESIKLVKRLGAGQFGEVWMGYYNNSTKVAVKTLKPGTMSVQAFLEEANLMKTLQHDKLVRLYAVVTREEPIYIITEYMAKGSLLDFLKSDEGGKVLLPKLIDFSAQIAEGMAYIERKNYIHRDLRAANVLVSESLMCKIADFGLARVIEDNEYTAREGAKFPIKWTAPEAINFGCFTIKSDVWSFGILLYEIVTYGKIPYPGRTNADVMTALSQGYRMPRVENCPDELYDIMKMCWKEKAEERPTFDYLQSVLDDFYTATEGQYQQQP
Sequence of Src (P12931 whole entry, looked up): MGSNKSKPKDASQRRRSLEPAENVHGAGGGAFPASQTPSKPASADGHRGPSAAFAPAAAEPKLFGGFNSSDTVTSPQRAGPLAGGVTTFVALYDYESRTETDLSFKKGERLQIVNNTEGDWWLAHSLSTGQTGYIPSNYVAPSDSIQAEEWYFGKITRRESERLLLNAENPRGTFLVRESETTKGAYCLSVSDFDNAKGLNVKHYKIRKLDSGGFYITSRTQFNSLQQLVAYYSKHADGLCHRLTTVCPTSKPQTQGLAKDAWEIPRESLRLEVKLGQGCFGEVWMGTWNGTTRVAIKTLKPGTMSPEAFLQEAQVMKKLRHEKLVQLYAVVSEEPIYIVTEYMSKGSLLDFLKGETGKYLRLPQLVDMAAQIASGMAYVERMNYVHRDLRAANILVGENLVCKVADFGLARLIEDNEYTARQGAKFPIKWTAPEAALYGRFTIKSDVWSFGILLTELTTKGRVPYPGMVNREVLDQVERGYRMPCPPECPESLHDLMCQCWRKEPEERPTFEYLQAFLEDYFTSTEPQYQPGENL

pEC50 [2] | pEC50 [5, 17] | pEC50 [6] | SMILES | Response of DoHH2 to known drugs [1] | pEC50 [3, 16] | Resistance of Ramos to known kinase inhibitors [7] | also measured
< 5.00 | < 5.00 | 5.26 | C=CC(=O)N1CCC[C@@H](n2nc(-c3ccc(Oc4ccccc4)cc3)c3c(N)ncnc32)C1 [PCI-32765, ibrutinib] | responds | 5.55 | resistant | pEC50 [4]: < 5.00
< 5.00 | 5.14 | 5.24 | Cc1ccc(NC(=O)c2ccc(CN3CC[C@H](N(C)C)C3)c(C(F)(F)F)c2)cc1Nc1nccc(-c2cncnc2)n1 [Inno-406] |  | 5.16 | resistant | 
 |  |  | Cc1nc(Nc2ncc(C(=O)Nc3c(C)cccc3Cl)s2)cc(N2CCN(CCO)CC2)n1 [dasatinib] | responds |  | resistant | 
 |  |  | CCN(CC)CCOc1ccc(Nc2cc3c(cn2)cc(-c2ccccc2)c(=O)n3C2CCOCC2)nc1 [Compound 70, 7-(5-(2-(diethylamino)ethoxy)pyridin-2-ylamino)-3-phenyl-1-(tetrahydro-2H-pyran-4-yl)-1,6-naphthyridin-2(1H)-one] |  |  |  | Effect on Cell Cycle [8]: G1 Arrest; Inhibition of PLCγ2 phosphorylation (Western blot) [9]: observed this inhibition; pIC50 [10]: 6.00 to 7.00; pEC50 ([3]; 48 hrs, read-out: DoHH2 EC50): > 6.00; pEC50 ([3]; Table 4, DoHH2 cells, read-out: EC50 (Proliferation)): > 6.00; Inhibition of phosphorylation of SFKs (Western blot) [11]: dose-dependent decrease of phosphorylation of SFKs; pIC50 [12]: 6.00 to 7.00; pEC50 ([5]; 48 hrs, read-out: Ramos EC50): < 5.00; pIC50 [13]: 6.00 to 7.00; pIC50 ([13]; read-out: BTK IC50): 6.00 to 7.00; pIC50 [14]: 6.00 to 7.00; pEC50 [15]: 6.48

Reference: patent US9714247B2, “Multiple kinase pathway inhibitors” (Mannkind Corporation, priority 2012, dated 2017)
